The values that follow come from ChEMBL document CHEMBL3507680, “University of Dundee, Gates Library screen for HepG2 cell viability”.

Molecules are shown by their SMILES.

This data set can be described thus: Human HepG2 cell viability assay in 384 well format. It counts as toxicity, cell-based. Further details: dose 125 nL, time 70.5 hour; cytotoxicity at 70.5 h: concentration not given beside the values. The following applies: HepG2 cells, read-out: Inhibition.

Turning to `NS(=O)(=O)c1cccnc1Nc1cccc(Cl)c1Cl`, the cytotoxicity at 70.5 h is 3.67%. As for `CCc1ncc(C(=O)c2ccc(OC)cc2)n1C`, the cytotoxicity at 70.5 h was 17.9%. Next, `CN(C(=O)c1ccco1)c1nc2c(s1)CCCC2`: -3.33%. As for `CCc1ccc(OCCn2cccn2)cc1`, the figure is 23.9%; as for `CNc1cc(-c2cc(OC)c(OC)c(OC)c2)ncn1`, -6.66%; as for `Cc1cc(C(=O)NCc2ccccn2)no1`, -6.09%. Next, `O=C1CCCc2nccc(-c3ccccc3)c21`: 23.5%; `Cc1cc2nc(CN(C)c3ccccc3)cc(=O)n2o1`: 3.13%; `Cc1nc(C)c(CN2CCOC(Cc3ccccc3Cl)C2)nc1C` (centres undefined): -2.34%. Turning to `COc1ccc2c(ccn2CCC(=O)O)c1`, the cytotoxicity at 70.5 h worked out at 27.9%. Next, `CC(C)CC(NC(=O)OC(C)(C)C)C(N)=O` (centres undefined): 20.5%; `Cn1ncc2c1CCCN(C(=O)C1CCCC1)C2`: -0.407%; `N#Cc1ncn(CCC(=O)Nc2ccc(Cl)cc2F)n1`: -7.28%. As for `CC(C)c1ccc(CNC(C)c2ccc(S(C)(=O)=O)cc2)cc1` (centres undefined), the figure is -8.82%; as for `Cc1ccc(S(=O)(=O)N2CCN(CCC#N)CC2)s1`, 7.61%.

Take `N[C@@H](Cc1ccccc1)c1nnc(S(=O)(=O)Cc2ccccc2)o1`: the cytotoxicity at 70.5 h was found to be 15.6%. As for `COc1ccnc(NC2CCN(CC(=O)Nc3ccccc3)CC2)n1`, the figure is 4.43%; as for `CCN1CCN(C(=O)c2ccn(C)c(=O)c2)CC1`, 32.5%.

Turning to `CCN(CC)S(=O)(=O)c1ccc(C(=O)NC(C)(C#N)C2CC2)cc1` (centres undefined), the cytotoxicity at 70.5 h is 19.1%.

In the case of `O=C(N1CCCCC1)N1CCN(CC(O)c2ccc(F)cc2)CC1` (centres undefined), the cytotoxicity at 70.5 h was -7.9%. Next, `Cc1n[nH]c(=O)c2c(NC(=O)CN3CCOC(C)C3)oc(C)c12` (centres undefined): 12.5%. Take `CN(CC(=O)N1CCCC1)C(=O)c1ccccc1Nc1ccccc1`: the cytotoxicity at 70.5 h was 18.3%. On to `CC(C)(C)c1nnnn1CC(=O)N(CCC#N)c1ccccc1`, for which the cytotoxicity at 70.5 h is -9.07%.

In the case of `Cn1ccc(C(=O)NCCOc2ccc(C(C)(C)C)cc2)cc1=O`, the cytotoxicity at 70.5 h was -4.21%. Turning to `O=C(NCCSC1CCCC1)c1cc(C2CC2)on1`, the cytotoxicity at 70.5 h is -0.97%. For the molecule `CC(=O)N(C)Cc1ccccc1NCc1c(C)noc1C`, the cytotoxicity at 70.5 h was -3.61%. Next, `CC(=O)c1ccc(OCC(=O)c2cccn2C)cc1`: -0.625%; `O=C(C1CC(c2ccccc2)=NO1)N1CCc2ccccc21` (centres undefined): 28.5%. With `CCC(NS(C)(=O)=O)c1ccccc1OC` (centres undefined), the cytotoxicity at 70.5 h is -1.94%. On to `O=C(CCn1cccn1)NCCOc1cccc(Cl)c1`, for which the cytotoxicity at 70.5 h was -7.23%. As for `Cc1ccc(NCc2ccccc2C#N)cc1-n1cnnn1`, the figure is 0.552%; as for `CN(C)C(=O)C1CCCN1c1ncnc2ccsc12` (centres undefined), -10.1%; as for `CN1CCC(CNC(=O)c2cccc(C(F)(F)F)c2)c2ccccc21` (centres undefined), 0.294%.

For the molecule `Cc1nnc(NCc2cccc(OCC3CCCO3)c2)c(C#N)c1C` (centres undefined), the cytotoxicity at 70.5 h was 29%. `CS(=O)(=O)c1ccc(NCC2CCCO2)c(S(C)(=O)=O)c1` (centres undefined): the cytotoxicity at 70.5 h is -9.12%. Next, `CCn1cnnc1CNc1nc(C)nc2scc(CC(C)C)c12`: -15.9%; `Cc1cc(NCCc2nc(C)cs2)nc(-c2cccnc2)n1`: -9.72%. Turning to `Cn1cc(S(=O)(=O)N(CC(F)(F)F)C2CC2)cc1C(N)=O`, the cytotoxicity at 70.5 h is -4.65%.

`N#Cc1ncn(CC(=O)Cc2c(F)cccc2Cl)n1`: the cytotoxicity at 70.5 h was -5.66%.

As for `Cc1c(C(C)Nc2ncnc3sccc23)cnn1C` (centres undefined), the cytotoxicity at 70.5 h was -8.04%. Consider `Cc1nnc(NCc2cccc(OCc3ccccn3)c2)c(C#N)c1C`, for which the cytotoxicity at 70.5 h was -4.44%. As for `c1cc(CNCCc2cn3ccccc3n2)c2c(c1)OCCCO2`, the figure is -6.72%; as for `Cc1cc(C)c2cc(C(=O)N3CCN(Cc4ccco4)CC3)[nH]c2c1`, -13.2%; as for `Cc1csc(NC(=O)CN(C)CCOc2cccc(F)c2)n1`, 15.2%. For `Cc1ccccc1OCCn1cnc2oc(C)c(C(=O)O)c2c1=O`, the cytotoxicity at 70.5 h was -7.96%. As for `CNC(=O)Nc1cc(-c2ccccc2C)nn1CCO`, the figure is 21.1%; as for `CN(C(=O)CCNC(=O)NC1CCCCC1)c1ccccc1`, 38.6%; as for `COc1ccc(NC(=O)NCC(O)c2ccc(F)cc2F)c(OC)c1` (centres undefined), 2.76%. Turning to `CC1CCN(C(=O)c2ccnc(-n3cncn3)c2)c2ccccc21` (centres undefined), the cytotoxicity at 70.5 h came to 13.2%. With `CNC(=O)NC(=O)CSc1ccc2c(c1)CCC2`, the cytotoxicity at 70.5 h was -5.43%. For the molecule `CCN1C(=O)CC(N(C)Cc2nc3ccccc3c(=O)[nH]2)C1=O` (centres undefined), the cytotoxicity at 70.5 h was -7.75%. Take `Cc1ccccc1CSCCn1nc2ccccn2c1=O`: the cytotoxicity at 70.5 h was -9.36%.

In the case of `CN1C(=O)C2(NC(=O)c3ccccc3O2)c2ccccc21` (centres undefined), the cytotoxicity at 70.5 h was -16.5%. Next, `Cc1n[nH]c(C(=O)NCc2ccnc(OCC(F)(F)F)c2)c1Br`: -4.39%.

Turning to `O=C(Nc1cccc(OCc2cccc(F)c2)c1)C1COCCO1` (centres undefined), the cytotoxicity at 70.5 h is -0.586%.

As for `CNC(=O)c1cc2ccccc2n1C`, the cytotoxicity at 70.5 h is 16.4%. As for `CN(C)S(=O)(=O)N1CCN(c2cc(-n3cccc3)ncn2)CC1`, the figure is -6%; as for `Cn1cc(C(=O)OC2CN(c3nc4c(C(F)(F)F)cccc4s3)C2)nn1`, 1.02%; as for `CCOCC(=O)N1CCC(CSCc2ccco2)CC1`, -10.8%. As for `O=C(CN1C(=O)CCC1=O)N1CCC(CSCc2ccco2)CC1`, the figure is -4.52%; as for `O=C(c1ccc2[nH]cnc2c1)N1CCC(Oc2cccnc2)CC1`, -6.98%; as for `CCCNC(=O)c1ccc2c(OC)n(C)nc2c1`, 0.507%. Next, `O=c1ccc2c([nH]1)CCN(S(=O)(=O)c1ccc3c(c1)OCCO3)C2`: 1.39%. In the case of `O=C(CN1C(=O)CCC1=O)N1CCOC2(CCOCC2)C1`, the cytotoxicity at 70.5 h came to 29.6%.

In the case of `O=C(CN1C(=O)c2ccccc2C1=O)N1CCOC2(CCOCC2)C1`, the cytotoxicity at 70.5 h was 3.73%. As for `CN(C)CC1CSCCCN1S(=O)(=O)Cc1cccc(F)c1` (centres undefined), the figure is -3.38%; as for `COc1cccc(CC(=O)N2CCCSCC2CN2CCCC2)c1` (centres undefined), -3.04%.

Take `O=C(COc1ccc(Cl)cc1Cl)N1CCCSCC1CN1CCOCC1` (centres undefined): the cytotoxicity at 70.5 h amounted to 0.222%.

As to `Cc1cnc2n(c1=O)CC(C(=O)NCc1ccccc1Cl)CS2` (centres undefined), the cytotoxicity at 70.5 h was 2.42%.

As for `Cc1ccc(Cl)cc1NC(=O)C1CSc2ncc(C)c(=O)n2C1` (centres undefined), the cytotoxicity at 70.5 h is -13.9%. As for `CC(C)(C)c1cc(=O)n2c(n1)SCC(C(=O)NCc1ccccn1)C2` (centres undefined), the figure is -5.78%; as for `CC(C)(C)c1cc(=O)n2c(n1)SCC(C(=O)NCc1ccco1)C2` (centres undefined), 29.2%. `CCc1c(C)nc2n(c1=O)CC(C(=O)Nc1sccc1C(=O)OC)CS2` (centres undefined): the cytotoxicity at 70.5 h was -6.34%. Next, `CN(C)c1ccc(C(O)CNS(=O)(=O)C2CC2)cc1` (centres undefined): 10.1%; `CCCc1nnsc1C(=O)NCC(O)c1ccc(SC)cc1` (centres undefined): 28.8%; `COCCN(Cc1ccoc1)C(=O)CSc1ccc(F)cc1`: -5.61%. Next, `COCCN(Cc1ccoc1)S(=O)(=O)c1ccc(F)c(Cl)c1`: 42.1%. As for `COCCN(Cc1ccoc1)S(=O)(=O)c1cccc(C(F)(F)F)c1`, the figure is -13.5%. As for `CCOc1ccccc1C(=O)NCCC(O)c1ccoc1` (centres undefined), the cytotoxicity at 70.5 h worked out at 9.07%. Regarding `O=C(COc1ccccc1F)NCCC(O)c1ccoc1` (centres undefined), the cytotoxicity at 70.5 h was -4.07%. Next, `CCc1ccc(S(=O)(=O)NCCC(O)c2ccoc2)s1` (centres undefined): -10.1%. Consider `COc1ccc(S(=O)(=O)NCCC(O)c2ccoc2)c(C)c1` (centres undefined), for which the cytotoxicity at 70.5 h is -5.52%.

With `Cc1cc(C(O)CCNC(=O)c2ccc(Cl)s2)c(C)o1` (centres undefined), the cytotoxicity at 70.5 h was -8.23%.

Take `COc1ccc(S(=O)(=O)NCCC(O)c2cc(C)oc2C)c(C)c1` (centres undefined): the cytotoxicity at 70.5 h is -5.42%. As for `COC1(CNC(=O)c2cccc(C#N)c2)CCSC1` (centres undefined), the figure is 42.8%; as for `COC1(CNC(=O)NCCc2ccccc2)CCSC1` (centres undefined), 15.9%; as for `CC(CCN1CCn2nc(CNC(=O)N(C)C)cc2C1)c1ccccc1` (centres undefined), -6.81%. For the molecule `Cc1nc(C2CCN(C(=O)CO)CC2)cc(N2CCOCC2)n1`, the cytotoxicity at 70.5 h was -7.87%. Turning to `CC[C@@H](CO)NC(=O)c1coc(COc2ccc(OC)cc2)n1`, the cytotoxicity at 70.5 h is -13%. On to `COCCNc1nc2c(c(NCc3ccncc3)n1)CCNCC2`, for which the cytotoxicity at 70.5 h was -7.33%. As for `Clc1ccccc1C1(c2ccnc(CC3CC3)n2)CCNCC1`, the figure is 4.53%.

Take `N#Cc1ccnc(N2CCC(c3nccn3Cc3cscn3)CC2)c1`: the cytotoxicity at 70.5 h was 31.3%.

As to `Cc1cc(C(=O)N[C@@H]2CCNC[C@H]2O)ccc1Cl`, the cytotoxicity at 70.5 h was -6.34%. Next, `Fc1ccc2[nH]c(C3CCCN3CCc3ccccn3)nc2c1` (centres undefined): -8.26%; `O=C(c1ccc[nH]1)N1CCC(c2nccn2Cc2ccncc2)CC1`: -0.778%; `COCC1CCN(C(=O)c2cccc(S(=O)(=O)NC3CCCC3)c2)C1` (centres undefined): -6.74%. With `CCN1CC(C(=O)N(C)Cc2ccon2)CC1=O` (centres undefined), the cytotoxicity at 70.5 h was 25.3%.

Take `CN(CCO)Cc1nnc(C2CCN(C(=O)c3cccnc3)CC2)n1C`: the cytotoxicity at 70.5 h was -10.6%. As for `COc1cc(CNC(C)Cn2cccn2)cc(OC)c1OC` (centres undefined), the figure is -7.54%; as for `CC(NCc1ccc(OCC(N)=O)cc1)c1ccc(Cl)c(Cl)c1` (centres undefined), -8.72%; as for `Cc1nn(CCC#N)c(C)c1CCC(=O)N(C)C`, 13.3%. In the case of `COc1cc2c(cc1CNCc1cccnc1-n1cccn1)OC(C)C2` (centres undefined), the cytotoxicity at 70.5 h came to 16.8%. With `CC(NCc1cnc(N2CCOCC2)nc1)c1ccc(Cl)s1` (centres undefined), the cytotoxicity at 70.5 h is -9.24%.

Regarding `COc1ccc(C2CC(=O)c3c(O)cc(O)cc3O2)cc1O` (centres undefined), the cytotoxicity at 70.5 h was -9.21%.
